Reference: patent US20120183489A1, “COMPOSITIONS COMPRISING METALLATED MALODOR CONTROL POLYMERS” (priority 2011, published 2012)

How the values were obtained:
[1] = benchmark values; cited from earlier work
[2] = Malodor control performance, headspace SPME GC/MS, nonanal; settings: 5 ml test solution spiked with 5 microliters; 2 h room temperature, 30 min 35° C.; Control = 1.0; pH 7 (ZnCl2 pH 5)
Method: (§1) This example illustrates the malodor efficacy of the HMPs of the present invention. Isovaleric acid was chosen as a chemical surrogate for body odor while butylamine was used as a representative for amine-containing odors such as fish, pet urine, etc. Hydrophobic greasy cooking odors were represented by aldehydes such as nonanal. The solutions are first equilibrated at room temperature for 2 hours, then incubated at 35° C. for 30 minutes. The headspace of each vial is finally sampled using a polydimethyl siloxane (PDMS)/Solid-Phase-Micro-Extraction (SPME) fiber and analyzed by GC/MS. The reductions in head space concentrations of odor molecules are measured and the data are normalized to Control. Lower numbers denote […] of malodor molecules present in the solution that are attributed to high malodor control efficacy of polymers.

[3] = Malodor control performance, headspace SPME GC/MS, isovaleric acid; settings: 5 ml test solution spiked with 5 microliters; 2 h room temperature, 30 min 35° C.; Control = 1.0; pH 7 (ZnCl2 pH 5)
Method: as §1

[4] = tested on: microbes of soiled sponge samples; experiment: Odor prevention through microbe reduction, SOLARIS colorimetric detection on soiled sponge; assay type: cell-based; settings: soiled sponge treated 15 min, dried 12 h; incubated 120 hrs at 37° C.; Control 2.35 hrs
Method: The Control formulation containing no malodor control polymer or zinc salt, and Formulations containing individual polymers, zinc salts, and zinc-polymer complexes are compared for their effect on odor prevention, through microbe reduction.
Soiled sponge samples were cut into 1×6 cm strips and treated with the solutions (Table 5) for 15 minutes and dried at ambient temperature for 12 hours. The treated 1 cm strips were then cut into 1×1 cm pieces, placed into SOLARIS scintillation vials, and 1 ml of MOPS buffer was added. The open vials were placed into outer SOLARIS vials containing thymolphthalein blue pH indicator and the vials were finally capped. The sealed vials were placed into a SOLARIS machine and incubated for 120 hrs at 37° C. Colorimetric measurements were conducted according to SOLARIS VIV protocol and the detection times of acidic respiratory byproducts were record (Table 5).

[5] = Malodor control performance, headspace SPME GC/MS, butylamine; settings: 5 ml test solution spiked with 5 microliters; 2 h room temperature, 30 min 35° C.; Control = 1.0; pH 7 (ZnCl2 pH 5)
Method: as §1

[6] = Sulfur odor control performance, headspace SPME GC/MS, butanethiol; settings: 5 ml test solution spiked with 3 ppm; 2 h room temperature, 30 min 35° C.; Control = 1.0
Method: (§2) Butanethiol and dipropoyl sulfide were chosen as chemical surrogates for sulfur containing odors such as kitchen (onion/garlic), sewage, etc. These two molecules also enable the assessment of efficacy of polymer for sulfur molecules having different degrees of hydrophobicity (e.g more hydrophobic dipropylsulfide is usually harder to mitigate with hydrophilic technologies such as cyclodextrin). 5 ml test solution was placed in a GC-MS vial and spiked with 3 parts-per-million of butanethiol or dipropylsulfide. The solutions were first equilibrated at room temperature for 2 hours, then incubated at 35° C. for 30 minutes. The headspace of each vial was finally sampled using a PDMS/SPME fiber and analyzed by GC/MS. The reductions in head space concentrations of sulfur molecules were measured and the data were normalized to Control (Table 4).

[7] = Sulfur odor control performance, headspace SPME GC/MS, dipropylsulfide; settings: 5 ml test solution spiked with 3 ppm; 2 h room temperature, 30 min 35° C.; Control = 1.0
Method: as §2

Molecule | ambient temperature water solubility (benchmark) [1] [g/100 ml] | head space concentration of Nonanal (Grease) normalized to Control [2] | head space concentration of Isovaleric Acid (Body) normalized to Control [3] | Respiratory Byproducts Detection Time [4] [h] | head space concentration of Butylamine (Fish) normalized to Control [5] | head space concentration of Butanethiol normalized to Control [6] | head space concentration of Dipropylsulfide normalized to Control [7]
hydroxypropyl modified beta cyclodextrin | ≥ 60 | – | – | – | – | – | –
[Cl-].[Cl-].[Zn+2] [ZnCl2, zinc chloride] | – | 1.0 | 1.0 | 3.38 | 0.0 | 0.8 | 1.0
OC[C@H]1O[C@@H]2O[C@H]3[C@H](O)[C@@H](O)[C@@H](O[C@H]4[C@H](O)[C@@H](O)[C@@H](O[C@H]5[C@H](O)[C@@H](O)[C@@H](O[C@H]6[C@H](O)[C@@H](O)[C@@H](O[C@H]7[C@H](O)[C@@H](O)[C@@H](O[C@H]8[C@H](O)[C@@H](O)[C@@H](O[C@H]1[C@H](O)[C@H]2O)O[C@@H]8CO)O[C@@H]7CO)O[C@@H]6CO)O[C@@H]5CO)O[C@@H]4CO)O[C@@H]3CO [beta-cyclodextrin] | 1.8 | – | – | – | – | – | –
